Peptide text beside a SMILES is read from it. * marks the point of attachment. Cbz = O=C(OCc1ccccc1)*; CHN2 = [N-]=[N+]=C*
Tests used:
Assay type in all cases: cell-based, recombinant vesicular stomatitis virus
[1] = system: rVSVs carrying SARS-CoV 2 S
[2] = system: rVSVs bearing EBOV GP
[3] = system: rVSVs bearing SARS-CoV-2 S

Compound	S-mediated entry (infection scored by eGFP expression) [1]	sensitivity of S-mediated entry relative to EBOV GP-dependent entry [1]	entry by rVSVs bearing EBOV GP (infection scored by eGFP expression) [2]	entry by rVSVs bearing SARS-CoV-2 S (infection scored by eGFP expression) [3]	sensitivity of S-mediated entry compared with entry by EBOV GP [3]
[N-]=[N+]=CC(=O)C(Cc1ccc(O)cc1)NC(=O)C(Cc1ccccc1)NC(=O)OCc1ccccc1 (stereo not drawn) [FYdmk, Z-Phe-tyr-dmk] (Cbz-Phe-Tyr-CHN2; configuration not given here)	inhibited S-mediated entry	reduced sensitivity			
Cl.N [NH4Cl]			reduced entry	reduced entry	comparatively less sensitive
